Results reported in patent US8252326B2, “Self-microemulsifying dosage forms of low solubility active ingredients such as co-enzyme Q10” (Catalent Australia Pty Ltd., priority 2005, dated 2012).

Experiments:
[1] = Solubility of coenzyme Q10 in oils, surfactants and co-surfactants; format: physicochemical
Description: To determine suitable excipient systems for actives, solubility studies were carried out on a variety of constituents of the inventive SMEDDS formulations. The solubility of Q10 in various oils, surfactants and co-surfactants were determined by placing an excess of the Q10 (approximately 2.5 g) in 22.5 g of the vehicle in screw capped glass bottles and heating the mixture to 55° C. in a water bath to facilitate the solubilization. Mixtures were equilibrated at room temperature for 24 hours and then filtered through 0.45 μm membrane filter to separate the undissolved drug. One gram of the filtered liquid mixtures were then weighed and diluted with cyclohexane and quantified by UV/Visible Spectrometry. Lemon oil and isopropyl myristate provided higher solubility than other oils. Although not limited to a theory of operation, it is believed that the oils form a distinct core in the interior of the surfactant aggregate when being dispersed in water, resulting in enhanced solubilizing capacity of the oils with improved drug loading capabilities of the emulsion.

[2] = cited from earlier work

- Solubility of coenzyme Q10 (% w/w) ([1]; in Acetylated monoglycerides, room temperature 24 hours): 7.5 % w/w
- Solubility of coenzyme Q10 (% w/w) ([1]; in Capmul MCM C8, room temperature 24 hours): 1.50 % w/w
- Solubility of coenzyme Q10 (% w/w) ([1]; in Glyceryl mono-oleate, room temperature 24 hours): 2.41 % w/w
- Solubility of coenzyme Q10 (% w/w) ([1]; in Isopropyl myristate, room temperature 24 hours): 11.2 % w/w
- Solubility of coenzyme Q10 (% w/w) ([1]; in Labrafac Hydro WL1219, room temperature 24 hours): 3.17 % w/w
- Solubility of coenzyme Q10 (% w/w) ([1]; in Labrafil M 1944, room temperature 24 hours): 5.91 % w/w
- Solubility of coenzyme Q10 (% w/w) ([1]; in Labrafil M 2125, room temperature 24 hours): 5.35 % w/w
- Solubility of coenzyme Q10 (% w/w) ([1]; in Lauroglyco 1 FCC, room temperature 24 hours): 3.05 % w/w
- Solubility of coenzyme Q10 (% w/w) ([1]; in Lauroglyco 190, room temperature 24 hours): 3.06 % w/w
- Solubility of coenzyme Q10 (% w/w) ([1]; in Lemon oil, equilibrated at room temperature 24 hours, 0.45 μm filtered): 24.3 % w/w
- Solubility of coenzyme Q10 (% w/w) ([1]; in Medium chain triglycerides, room temperature 24 hours): 3.74 % w/w
- Solubility of coenzyme Q10 (% w/w) ([1]; in Oleic acid, room temperature 24 hours): 3.80 % w/w
- Solubility of coenzyme Q10 (% w/w) ([1]; in PEG 35 Castor oil, room temperature 24 hours): 2.34 % w/w
- Solubility of coenzyme Q10 (% w/w) ([1]; in Polysorbate 80, room temperature 24 hours): 0.370 % w/w
- Solubility of coenzyme Q10 (% w/w) ([1]; in Polysorbate 85, room temperature 24 hours): 1.57 % w/w
- Solubility of coenzyme Q10 (% w/w) ([1]; in Span 80, room temperature 24 hours): 3.24 % w/w
- Solubility of coenzyme Q10 (% w/w) ([1]; in Transcutol P, room temperature 24 hours): 0.260 % w/w
SMILES: COC1=C(OC)C(=O)C(C/C=C(\C)CC/C=C(\C)CC/C=C(\C)CC/C=C(\C)CC/C=C(\C)CC/C=C(\C)CC/C=C(\C)CC/C=C(\C)CC/C=C(\C)CCC=C(C)C)=C(C)C1=O [Coenzyme Q10]
- Solubility in water [2]: practically insoluble in water
